Assay results reported in patent US11612628B2, “Compositions for the treatment of articular disorders” (Aboca S.p.A. Società Agricola, priority 2017, dated 2023).
Values joined by “and” are separate entries in the source; they are usually repeats but may differ in a detail not shown here. Equal values may be shown once.

Assays:
Type in all cases: in vivo, Sprague-Dawley rats
[1] = test system: Monoiodine Acetate-Induced Osteoarthritis Pain Model; assay: Paw pressure test, MIA-induced osteoarthritis rats
Procedure: (§1) Damage to the joint was induced by an individual intraarticular administration, in the paw of a pre-anesthetized rat, of 2 mg of […] (MIA) (volume: 25 μl) according to what described by Guingamp et al., Arthritis Rheum., 40:1670-1679, 1997.
(§2) The experiments described below were performed by injecting into the joint 20 μl of • control (physiological solution); • extract of lyophilized Echinacea purpurea, fraction soluble in hydroalcoholic solution 40-50%, denoted in the figures as 13C1608:2-10-20 mg/ml in PBS (phosphate buffered saline); • extract of lyophilized Centella asiatica, fraction soluble in hydroalcoholic solution 65-75%, denoted in the figures as 14G1862:0.2-1-2 mg/ml in PBS; • bovine synovial fluid: as is; • Hyalgan (Low-molecular weight Hyaluronic acid sodium salt (MW ˜500-730 kDa)):as is; • Jonexa (mixture comprised of a hylastan gel, i.e. a hyaluronic acid crosslinked with divinyl sulfone, and a sodium hyaluronate liquid in the gel-liquid ratio of 80:20): as is; • extract of Centella asiatica fraction soluble in hydroalcoholic solution 65-75%, denoted in the figures as 14G1862: 2 mg/ml in PBS • extract of lyophilized Centella asiatica, fraction soluble in hydroalcoholic solution, denoted in the figures as ABO-AR-2016-391: 2 mg/ml in PBS; • extract of lyophilized Centella asiatica, fraction soluble in hydroalcoholic solution, corresponding to the permeate of fraction ABO-AR-2016-391 after filtration, denoted in the figures as ABO-AR-2016-392:2 mg/ml in PBS; • extract of lyophilized Centella asiatica, fraction soluble in hydroalcoholic solution, corresponding to the retentate of fraction ABO-AR-2016-391 after filtration, denoted in the figures as ABO-AR-2016-393:2 mg/ml in PBS; • Triamcinolone acetonide: 100 μg/[…] • MIX (coextract) Centella+Echinacea lot 17H0246, as described above: 11 mg/ml in water f.p.i.
(§3) Injected material: 20 μL of each sample assayed were injected into rat tibiotarsal joint (using a 26Gx3/8 needle) at […] from damage induction by MIA.
(§4) The mixture of plant extracts was solubilized in accordance with the following protocol: 5.5 g of lyophilized mixture were introduced in a beaker containing 450 g of water and left under stirring 15 min; thereafter, the weight of the liquid was brought to 500 g. For each injection, 30 g of solution were collected and filtered in sequence with 0.45-μ, and 0.22-μm filters. For each filtering, the first 3-4 g of solution were discarded. 20 μL of mixture were injected into the tibiotarsal joint of the rat (using a 26Gx3/8 needle) after having flexed its paw so as to form a 90°-degree angle, at day 8 from articular (joint) damage induction by MIA. For the other substances as well 20 μL of solution were injected (Hyalgan 10 mg/ml; triamcinolone acetonide 100 μg/20m1).
An analgesimeter (Ugo Basile, Varese, Italy) was used. A pressure increasing at a constant rate (32 g/s) was applied on the hind paw of the animal by a blunt conical element. The nociceptive threshold of the rat was expressed as that force to which the animal reacts by withdrawing the paw or vocalizing (Leighton et al., 1988).

[2] = test system: Monoiodine Acetate-Induced Osteoarthritis Pain Model; assay: Incapacitance test, MIA-induced osteoarthritis rats; details: for Incapacitance test Δ Weight (contralateral - ipsilateral paw): 20 μL i.a. day 8 after MIA, Table 2; for Incapacitance test Δ Weight (paw contralateral - ipsilateral): 20 μL i.a. of fraction (2 mg/ml) or triamcinolone acetonide (100 μg), Table 9
Procedure: as §1, §2, §3, §4
The test is based on the evaluation of the pressure exerted by a rat under conditions of normal posture on each of the hind legs (Hay et al. Neurosci. 78:843-850, 1997). Rats were placed into a small plexiglass box, their hind legs positioned onto two transducers recording the weight the rat distributes on each of the two paws. In case a neuropathy or an inflammation has been induced on one paw, the rat will exert less weight on said paw, compared to the other one.

[3] = test system: Monoiodine Acetate-Induced Osteoarthritis Pain Model; assay: Beam balance test, MIA-induced osteoarthritis rats; details: for Beam balance test score, from normal (0) to pathological (4): 20 μL i.a. day 8 after MIA, Table 3
Procedure: as §1, §2, §4
A 1-meter-long wooden beam having a 1 cm-square section was placed at a height of about 40 cm. […]

[4] = test system: Monoiodine Acetate-Induced Osteoarthritis Pain Model; assay: Animex test (spontaneous activity), MIA-induced osteoarthritis rats; details: for Animex test Number of movements: 20 μL i.a. day 8 after MIA, Table 4
Procedure: as §1, §2
as §4, with “For the other substances as well 20 μL of solution were injected (Hyalgan 10 mg/ml; triamcinolone acetonide 100 μg/20m1).” left out
The instrument enables to record the spontaneous activity of the animals through use of electromagnetic fields and resonance circuits. […] Variations are recorded by a number counter.

[5] = test system: rat tibiotarsal joint; assay: Histology of the tibiotarsal joint, MIA-treated rats
Procedure: as §1, §2, §3
Tissue samples were fixed in 4% formalin in phosphate buffer for 24 hours. Subsequently, samples were decalcified for 28 days in a suitable decalcifying solution (1.6M formic acid, 0.76M sodium formate). At the end of the decalcification, the samples were dehydrated by passages in alcohol with increasing titer, and then included in paraffin. From samples thus processed, 7 μm-thick sections were obtained which were stained by Hematoxylin-Eosin.
The samples were observed under transmitted light optical microscope to assess the morphological parameters subject of analysis: • Inflammatory infiltrate • Synovial hyperplasia • Fibrin deposition in the joint space • Synovial vascularization • Cartilage erosion • Bone erosion • Joint space width
Every morphological parameter was evaluated by a specially provided score (0:absent, 1:scarce, 2:moderate, 3:serious). The evaluation was performed by three separate operators, in blind relative to the origin of the slides. A fourth operator collected data and obtained the final means. For each joint, at least three slides, and for each group at least 6 animals were evaluated. Results are expressed as mean±standard error.

[6] = coextract study, single i.a. 20 μL, days 14, 30, 60
[7] = Centella fractions study, FIGS. 3 and 4

CC1(C)O[C@@H]2C[C@H]3[C@@H]4CCC5=CC(=O)C=C[C@]5(C)[C@@]4(F)[C@@H](O)C[C@]3(C)[C@]2(C(=O)CO)O1 [triamcinolone acetonide, Triamcinolone acetonide]
Paw pressure test Weight ([1]; Day 14, contralateral, 20 μL i.a. day 8 after MIA, Table 1): 64.5 ± 0.9 g | Paw pressure test Weight ([1]; Day 14, contralateral, 20 μL i.a. of fraction (2 mg/ml) or triamcinolone acetonide (100 μg), Table 8): 65.3 ± 1.0 g | Paw pressure test Weight ([1]; Day 14, ipsilateral, 20 μL i.a. day 8 after MIA, Table 1): 51.9 ± 1.3^^ g | Paw pressure test Weight ([1]; Day 14, ipsilateral, 20 μL i.a. of fraction (2 mg/ml) or triamcinolone acetonide (100 μg), Table 8): 52.8 ± 1.1 g | Paw pressure test Weight ([1]; Day 30, contralateral, 20 μL i.a. day 8 after MIA, Table 1): 68.4 ± 1.6 g | Paw pressure test Weight ([1]; Day 30, contralateral, 20 μL i.a. of fraction (2 mg/ml) or triamcinolone acetonide (100 μg), Table 8): 65.8 ± 0.5 g | Paw pressure test Weight ([1]; Day 30, ipsilateral, 20 μL i.a. day 8 after MIA, Table 1): 57.4 ± 0.4^ g | Paw pressure test Weight ([1]; Day 30, ipsilateral, 20 μL i.a. of fraction (2 mg/ml) or triamcinolone acetonide (100 μg), Table 8): 56.7±2.5 g and 56.7 ± 2.5^^ g | Paw pressure test Weight ([1]; Day 60, contralateral, 20 μL i.a. day 8 after MIA, Table 1): 64.9 ± 2.1 g | Paw pressure test Weight ([1]; Day 60, contralateral, 20 μL i.a. of fraction (2 mg/ml) or triamcinolone acetonide (100 μg), Table 8): 66.4 ± 0.7 g | Paw pressure test Weight ([1]; Day 60, ipsilateral, 20 μL i.a. day 8 after MIA, Table 1): 63.0 ± 1.5^ g | Paw pressure test Weight ([1]; Day 60, ipsilateral, 20 μL i.a. of fraction (2 mg/ml) or triamcinolone acetonide (100 μg), Table 8): 61.3 ± 1.6 g | antiperalgesic effect, Paw pressure test (in words) [1, 6]: significantly reduces the articular pain reaction at all timings | Incapacitance test effect (in words) ([2]; Centella fractions study, fractions 2 mg/ml, triamcinolone acetonide 100 μg): active both at days 14 and 30 | Incapacitance test Δ Weight (contralateral - ipsilateral paw) ([2]; Day 14): 45.7 ± 3.9^^ g | Incapacitance test Δ Weight (paw contralateral - ipsilateral) ([2]; Day 14): 28.7 ± 3.2^ g | Incapacitance test Δ Weight (contralateral - ipsilateral paw) ([2]; Day 30): 25.4 ± 4.3^^ g | Incapacitance test Δ Weight (paw contralateral - ipsilateral) ([2]; Day 30): 15.6 ± 5.4^ g | Incapacitance test Δ Weight (contralateral - ipsilateral paw) ([2]; Day 60): 20.9 ± 5.4^ g | Incapacitance test Δ Weight (paw contralateral - ipsilateral) ([2]; Day 60): 5.6 ± 4.4 g | reduction of MIA-induced postural alteration, Incapacitance test (in words) [2, 6]: reduces, it also in a statistically significant manner, MIA-induced alteration at all timings considered | Beam balance test score, from normal (0) to pathological (4) ([3]; Day 14): 1.8 ± 0.2^ | Beam balance test score, from normal (0) to pathological (4) ([3]; Day 30): 1.3 ± 0.2 | Beam balance test score, from normal (0) to pathological (4) ([3]; Day 60): 0.8 ± 0.2 | motor abilities, Beam balance test (in words) [3, 6]: statistical significance is reached solely at day 14 | Animex test Number of movements ([4]; Day 14): 487.3 ± 57.3^ | Animex test Number of movements ([4]; Day 30): 583.3 ± 45.2^ | Animex test Number of movements ([4]; Day 60): 688.9 ± 54.2^ | spontaneous mobility, Animex test (in words) [4, 6]: effectiveness is lower than that of the plant mixture | cartilage and bone tissue erosion (histology, in words) [5, 7]: significant effectiveness | inflammatory infiltrate (histology, in words) [5, 7]: significant effectiveness | joint space reduction (histology, in words) [5, 7]: reduced effectiveness to 15- and 30-day timings and a more marked effectiveness after 60 days | morphological parameters overall (histology, in words) [5, 7]: only partially reduces the damaging effects of MIA | other parameters: synovial hyperplasia, fibrin deposition, synovial vascularization (histology, in words) [5, 7]: reduced effectiveness to 15- and 30-day timings and a more marked effectiveness after 60 days | articular space width (histology, in words) ([5]; coextract study, FIG. 18-19): Evident effects | erosion of cartilage and subchondral bone (histology, in words) ([5]; coextract study, FIG. 18-19): analogous result | fibrin deposition in the articular space (histology, in words) ([5]; coextract study, FIG. 18-19): More moderate effects | inflammatory infiltrate (histology, in words) ([5]; coextract study, FIG. 18-19): capable of eliminating the presence of inflammatory infiltrate at all timings analyzed | synovial hyperplasia and vascularization (histology, in words) ([5]; coextract study, FIG. 18-19): More moderate effects
